{"source": "paper PMC2843756", "about": "(European journal of medicinal chemistry, 2010)", "key": {"[1]": {"details": "mice, po once a day, 100 mg/kg five days, 2 days rest, 200 mg/kg five days"}, "[2]": {"system": "panel of nontuberculosis mycobacteria and other bacteria (Gram positive and negative) as well as select strains of yeast", "experiment": "MIC against panel of nontuberculosis mycobacteria, other bacteria and yeast", "type": "cell-based", "details": "all strains of the panel; MIC's equal to negative control"}, "[3]": {"system": "Mycobacterium vaccae 10670 and Mycobacterium fortuitum B", "experiment": "Agar diffusion assay", "type": "cell-based"}, "[4]": {"system": "Mycobacterium tuberculosis H37Rv", "experiment": "Microplate Alamar Blue Assay", "type": "cell-based", "details": "for anti-TB activity (in words): qualitative statement; for MIC: medium not specified"}, "[5]": {"system": "Mycobacteria tuberculosis H37Rv", "details": "earlier work of the authors; cited from earlier work"}, "[6]": {"experiment": "Metabolic stability in rat liver microsomes", "type": "in vitro ADME, Sprague-Dawley rat", "details": "in vitro metabolism"}, "[7]": {"system": "VERO cells", "experiment": "VERO cytotoxicity assay", "details": "compared with non-methyl analog"}, "[8]": {"details": "Mycobacterium tuberculosis, H37RV"}}, "data": [{"compound": "COc1ccc(-c2nc(C(=O)OCc3ccccc3)co2)cc1", "note": "[Compound 60, Benzyl 2-(4-methoxyphenyl)oxazole-4-carboxylate]", "values": [{"measurement": "tolerability (body weight, gross appearance and behavior)", "setting": "[1]", "value": "well tolerated"}, {"measurement": "MIC against panel (in words)", "setting": "[2]", "value": "inactive"}, {"measurement": "zones of inhibition", "setting": "[3]", "value": "some zones of inhibition"}]}, {"compound": "COC(=O)[C@@H]1COC(c2ccccc2OCc2ccccc2)=N1", "note": "[Compound 12]", "values": [{"measurement": "anti-TB activity (in words)", "setting": "[4]", "value": "considerably less active"}]}, {"compound": "O=C(OCc1ccccc1)c1coc(-c2cccc(Cl)c2)n1", "note": "[Compound 59]", "values": [{"measurement": "MIC", "setting": "[4]; [8]", "value": "< 1", "unit": "µM"}]}, {"compound": "O=C(OCc1ccccc1)[C@@H]1COC(c2ccccc2OCc2ccccc2)=N1", "note": "[Compound 3, (S)-Benzyl 2-(2-(benzyloxy)phenyl)-4,5-dihydrooxazole-4-carboxylate]", "values": [{"measurement": "tolerability (body weight, gross appearance and behavior)", "setting": "[1]", "value": "well tolerated"}]}, {"compound": "COC(=O)[C@@H]1COC(c2ccc([N+](=O)[O-])cc2)=N1", "note": "[Compound 27]", "values": [{"measurement": "anti-TB activity (in words)", "setting": "[4]", "value": "considerably less active"}]}, {"compound": "CCCCCCCCCCCCCCCC(=O)N(O)CCCC[C@H](NC(=O)[C@@H]1COC(c2ccccc2O)=N1)C(=O)O[C@@H](C)CC(=O)N[C@H]1CCCCN(O)C1=O", "note": "[Mycobactin S]", "values": [{"measurement": "effect on growth of Mycobacteria tuberculosis H37Rv", "setting": "[5]", "value": "inhibits the growth"}]}, {"compound": "O=C(OCc1ccccc1)c1coc(-c2ccc(F)c([N+](=O)[O-])c2)n1", "note": "[Compound 66, Benzyl 2-(4-fluoro-3-nitrophenyl)oxazole-4-carboxylate]", "values": [{"measurement": "MIC", "setting": "[4]; [8]", "value": "< 1", "unit": "µM"}, {"measurement": "MIC against panel (in words)", "setting": "[2]", "value": "inactive"}, {"measurement": "zones of inhibition", "setting": "[3]", "value": "some zones of inhibition"}]}, {"compound": "mycobactin T", "values": [{"measurement": "effect on growth of Mycobacteria tuberculosis H37Rv", "setting": "[5]", "value": "promotes growth"}]}, {"compound": "COc1ccc(-c2nc(C(=O)OCc3ccccc3)c(C)o2)cc1", "note": "[Compound 110]", "values": [{"measurement": "anti-TB activity (in words)", "setting": "[4]", "value": "diminished anti-TB activity"}]}, {"compound": "COc1ccc(CC2=N[C@H](C(=O)OCc3ccccc3)CO2)cc1", "note": "[Compound 44]", "values": [{"measurement": "anti-TB activity (in words)", "setting": "[4]", "value": "diminished activity"}]}, {"compound": "O=C(OCc1ccccc1)c1coc(-c2cncc(-c3ccccc3)c2)n1", "note": "[Compound 78]", "values": [{"measurement": "MIC", "setting": "[4]; [8]", "value": "< 1", "unit": "µM"}]}, {"compound": "O=C(OCc1ccccc1)[C@@H]1COC(Cc2ccccc2)=N1", "note": "[Compound 43]", "values": [{"measurement": "anti-TB activity (in words)", "setting": "[4]", "value": "diminished activity"}]}, {"compound": "O=C(OCc1ccccc1)c1coc(-c2ccccc2Cl)n1", "note": "[Compound 68, Benzyl 2-(2-chlorophenyl)oxazole-4-carboxylate]", "values": [{"measurement": "tolerability (body weight, gross appearance and behavior)", "setting": "[1]", "value": "well tolerated"}, {"measurement": "MIC", "setting": "[4]; [8]", "value": "< 1", "unit": "µM"}, {"measurement": "MIC against panel (in words)", "setting": "[2]", "value": "inactive"}, {"measurement": "zones of inhibition", "setting": "[3]", "value": "some zones of inhibition"}]}, {"compound": "CCCCCCCCCCCCCCCC(=O)N(O)CCCC[C@H](NC(=O)[C@@H]1COC(c2ccccc2O)=N1)C(=O)OC[C@H](NC(=O)OC(C)(C)C)C(=O)N[C@H]1CCCCN(O)C1=O", "note": "[Compound 2]", "values": [{"measurement": "effect on growth of Mycobacteria tuberculosis H37Rv", "setting": "[5]", "value": "potent inhibition of TB growth"}]}, {"compound": "O=C(OCc1ccccc1)[C@@H]1COC(c2ccccc2)=N1", "note": "[Compound 15, (S)-Benzyl 4,5-dihydro-2-phenyloxazole-4-carboxylate]", "values": [{"measurement": "major metabolite", "setting": "[6]", "value": "the corresponding carboxylic acid"}, {"measurement": "tolerability (body weight, gross appearance and behavior)", "setting": "[1]", "value": "well tolerated"}, {"measurement": "MIC against panel (in words)", "setting": "[2]", "value": "inactive"}, {"measurement": "zones of inhibition", "setting": "[3]", "value": "some zones of inhibition"}]}, {"compound": "Cc1oc(-c2ccccc2)nc1C(=O)OCc1ccccc1", "note": "[Compound 109]", "values": [{"measurement": "anti-TB activity (in words)", "setting": "[4]", "value": "diminished anti-TB activity"}, {"measurement": "toxicity in the VERO assay (in words)", "setting": "[7]", "value": "greatly increased toxicity"}]}, {"compound": "COC(=O)[C@@H]1COC(c2cccc(Cl)c2)=N1", "note": "[Compound 19]", "values": [{"measurement": "anti-TB activity (in words)", "setting": "[4]", "value": "considerably less active"}]}, {"compound": "O=C(OCc1ccccc1)c1coc(-c2ccccc2)n1", "note": "[Compound 65, Benzyl 2-phenyloxazole-4-carboxylate]", "values": [{"measurement": "tolerability (body weight, gross appearance and behavior)", "setting": "[1]", "value": "well tolerated"}, {"measurement": "MIC", "setting": "[4]; [8]", "value": "< 1", "unit": "µM"}, {"measurement": "MIC", "setting": "[4]", "value": "< 0.5", "unit": "µM"}, {"measurement": "MIC against panel (in words)", "setting": "[2]", "value": "inactive"}, {"measurement": "zones of inhibition", "setting": "[3]", "value": "some zones of inhibition"}]}, {"compound": "O=C(OCc1ccccc1)c1coc(-c2ccccc2OCc2ccccc2)n1", "note": "[Compound 63, Benzyl 2-(2-(benzyloxy)phenyl)oxazole-4-carboxylate]", "values": [{"measurement": "tolerability (body weight, gross appearance and behavior)", "setting": "[1]", "value": "well tolerated"}, {"measurement": "MIC against panel (in words)", "setting": "[2]", "value": "inactive"}, {"measurement": "zones of inhibition", "setting": "[3]", "value": "some zones of inhibition"}]}, {"compound": "O=C(OCc1ccccc1)c1coc(-c2ccc([N+](=O)[O-])cc2F)n1", "note": "[Compound 70]", "values": [{"measurement": "MIC", "setting": "[4]; [8]", "value": "< 1", "unit": "µM"}]}, {"compound": "Cc1oc(-c2ccc(F)cc2[N+](=O)[O-])nc1C(=O)OCc1ccccc1", "note": "[Compound 111]", "values": [{"measurement": "anti-TB activity (in words)", "setting": "[4]", "value": "diminished anti-TB activity"}]}, {"compound": "O=C(O)[C@@H]1COC(c2ccccc2O)=N1", "note": "[Compound 4]", "values": [{"measurement": "anti-TB activity (in words)", "setting": "[4]", "value": "lost all activity"}]}, {"compound": "O=C(OCc1ccccc1)[C@@H]1COC(c2ccc(F)c([N+](=O)[O-])c2)=N1", "note": "[Compound 29, (S)-Benzyl 2-(4-fluoro-3-nitrophenyl)-4,5-dihydrooxazole-4-carboxylate]", "values": [{"measurement": "tolerability (body weight, gross appearance and behavior)", "setting": "[1]", "value": "well tolerated"}, {"measurement": "MIC against panel (in words)", "setting": "[2]", "value": "inactive"}, {"measurement": "zones of inhibition", "setting": "[3]", "value": "some zones of inhibition"}]}, {"compound": "O=C(OCc1ccccc1)c1coc(-c2cccc(F)c2)n1", "note": "[Compound 89]", "values": [{"measurement": "MIC", "setting": "[4]; [8]", "value": "< 1", "unit": "µM"}]}]}
